Like-named read-outs stand apart in the source and are kept apart here.
Columns and labels:
Format in all cases: in vivo
[1] = tested on: ducksalad (Heteranthera limosa); assay: Test B flooded paddy test; conditions: Heteranthera limosa, Flood, 250 g ai/ha; scale of 0 to 100 where 0 is no effect and 100 is complete control; read-out: Ducksalad plant response rating
Method in brief: (§1)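 Compound goes directly into floodwater once pots are flooded 3 cm above soil, targeting plants at two leaves; the water depth is then held for the test duration. Plants sit 13–15 d in a greenhouse and are rated visually, 100 denoting complete control.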

[2] = tested on: barnyardgrass (Echinochloa crus-galli); assay: Test B flooded paddy test; conditions: Echinochloa crus-galli, Flood, 250 g ai/ha; scale of 0 to 100 where 0 is no effect and 100 is complete control; read-out: Barnyardgrass plant response rating
Method in brief: as §1

[3] = tested on: rice (Oryra sativa); assay: Test B flooded paddy test; conditions: Oryza sativa, Flood, 250 g ai/ha; scale of 0 to 100 where 0 is no effect and 100 is complete control; read-out: Rice plant response rating
Method in brief: as §1

[4] = tested on: sedge, umbrella (small-flower umbrella sedge, Cyperus difformis); assay: Test B flooded paddy test; conditions: Cyperus difformis, Flood, 250 g ai/ha; scale of 0 to 100 where 0 is no effect and 100 is complete control; read-out: Sedge, Umbrella plant response rating
Method in brief: as §1

[5] = tested on: Galium (catchweed bedstraw, Galium aparine); assay: Test A postemergence; conditions: Galium, post-emergence, 240 h, 125 g ai/ha
Method in brief: (§2)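 Each rating is a visual injury score from 0 to 100 given about 10 d after treatment, judged against untreated controls kept alongside in the greenhouse. In loam soil–sand blend, seeds got a preemergence directed soil spray, while postemergence plants were 2 to 10 cm tall at spraying.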

[6] = tested on: Kochia (Kochia scoparia); assay: Test A postemergence; conditions: Bassia scoparia, post-emergence, 240 h, 125 g ai/ha
Method in brief: as §2

[7] = tested on: giant foxtail (Setaria faberii); assay: Test A postemergence; conditions: Setaria faberi, post-emergence, 240 h, 125 g ai/ha
Method in brief: as §2

[8] = tested on: ryegrass, Italian (Italian ryegrass, Lolium multiflorum); assay: Test A postemergence; conditions: Lolium multiflorum, post-emergence, 240 h, 125 g ai/ha
Method in brief: as §2

[9] = tested on: blackgrass (Alopecurus myosuroides); assay: Test A postemergence; conditions: Alopecurus myosuroides, post-emergence, 240 h, 125 g ai/ha
Method in brief: as §2

[10] = tested on: barnyardgrass (Echinochloa crus-galli); assay: Test A postemergence; conditions: Echinochloa crus-galli, post-emergence, 240 h, 125 g ai/ha
Method in brief: as §2

[11] = tested on: ragweed (common ragweed, Ambrosia elatior); assay: Test A postemergence; conditions: Ambrosia artemisiifolia, post-emergence, 240 h, 125 g ai/ha
Method in brief: as §2

[12] = tested on: pigweed (Amaranthus retroflexus); assay: Test A postemergence; conditions: Amaranthus retroflexus, post-emergence, 240 h, 125 g ai/ha
Method in brief: as §2

[13] = tested on: wheat (Triticum aestivum); assay: Test A postemergence; conditions: Triticum aestivum, post-emergence, 240 h, 125 g ai/ha
Method in brief: as §2

[14] = tested on: corn (Zea mays); assay: Test A postemergence; conditions: Zea mays, post-emergence, 240 h, 125 g ai/ha; for plant injury at 125 g/ha: postemergence, visual injury rating after approximately 10 d, read-out: Corn plant response rating (0 to 100 scale, 0 no effect, 100 complete control)
Method in brief: as §2

[15] = tested on: barnyardgrass (Echinochloa crus-galli); assay: Test A preemergence; conditions: Echinochloa crus-galli, pre-emergence, 240 h; for pest or weed control at 125 g/ha: 125 g ai/ha, 0 to 100 scale where 0 is no effect and 100 is complete control; for pest or weed control at 500 g/ha: 500 g ai/ha
Method in brief: as §2

[16] = postemergence, visual injury rating after approximately 10 d, read-out: Galium plant response rating (0 to 100 scale, 0 no effect, 100 complete control)
[17] = postemergence, visual injury rating after approximately 10 d, read-out: Kochia plant response rating (0 to 100 scale, 0 no effect, 100 complete control)
[18] = postemergence, visual injury rating after approximately 10 d, read-out: Foxtail, Giant plant response rating (0 to 100 scale, 0 no effect, 100 complete control)
[19] = postemergence, visual injury rating after approximately 10 d, read-out: Ryegrass, Italian plant response rating (0 to 100 scale, 0 no effect, 100 complete control)
[20] = postemergence, visual injury rating after approximately 10 d, read-out: Blackgrass plant response rating (0 to 100 scale, 0 no effect, 100 complete control)
[21] = postemergence, visual injury rating after approximately 10 d, read-out: Barnyardgrass plant response rating (0 to 100 scale, 0 no effect, 100 complete control)
[22] = postemergence, visual injury rating after approximately 10 d, read-out: Ragweed plant response rating (0 to 100 scale, 0 no effect, 100 complete control)
[23] = postemergence, visual injury rating after approximately 10 d, read-out: Pigweed plant response rating (0 to 100 scale, 0 no effect, 100 complete control)
[24] = postemergence, visual injury rating after approximately 10 d, read-out: Wheat plant response rating (0 to 100 scale, 0 no effect, 100 complete control)
[25] = preemergence, read-out: Barnyardgrass plant response rating
[26] = Preemergence, visual injury vs untreated controls after approximately 10 d, read-out: Barnyardgrass plant response rating (0 to 100 scale where 0 is no effect and 100 is complete control)

Compound: CN1C[C@H](c2cc(F)c(C(F)(F)F)c(F)c2)[C@@H](C(=O)Nc2ccccc2S(C)(=O)=O)C1=O [Compound 900]
- pest or weed control at 250 g/ha [1]: 40%
- pest or weed control at 250 g/ha [2]: 70%
- pest or weed control at 250 g/ha [3]: 0%
- pest or weed control at 250 g/ha [4]: 0%
- pest or weed control at 125 g/ha [5, 16]: 20%
- pest or weed control at 125 g/ha [6, 17]: 30%
- pest or weed control at 125 g/ha [7, 18]: 80%
- pest or weed control at 125 g/ha [8, 19]: 40%
- pest or weed control at 125 g/ha [9, 20]: 40%
- pest or weed control at 125 g/ha [10, 21]: 80%
- pest or weed control at 125 g/ha [11, 22]: 10%
- pest or weed control at 125 g/ha [12, 23]: 50%
- plant injury at 125 g/ha [13, 24]: 50%
- plant injury at 125 g/ha [14]: 50%
- pest or weed control at 125 g/ha [15, 25]: 90%
- pest or weed control at 500 g/ha [15, 26]: 90%

Compound: CN1C[C@H](c2cccc(COC(F)F)c2)[C@@H](C(=O)Nc2ccccc2F)C1=O [Compound 875]
- pest or weed control at 250 g/ha [1]: 100%
- pest or weed control at 250 g/ha [2]: 70%
- pest or weed control at 250 g/ha [3]: 0%
- pest or weed control at 250 g/ha [4]: 0%
- pest or weed control at 125 g/ha [5, 16]: 40%
- pest or weed control at 125 g/ha [6, 17]: 40%
- pest or weed control at 125 g/ha [7, 18]: 90%
- pest or weed control at 125 g/ha [8, 19]: 20%
- pest or weed control at 125 g/ha [9, 20]: 20%
- pest or weed control at 125 g/ha [10, 21]: 90%
- pest or weed control at 125 g/ha [11, 22]: 20%
- pest or weed control at 125 g/ha [12, 23]: 0%
- plant injury at 125 g/ha [13, 24]: 0%
- plant injury at 125 g/ha [14]: 20%
- pest or weed control at 125 g/ha [15, 25]: 90%
- pest or weed control at 500 g/ha [15, 26]: 90%

Compound: Cc1cccc(NC(=O)[C@H]2C(=O)N(C)C[C@@H]2c2ccc(C(F)(F)F)cc2)c1F [Compound 939]
- pest or weed control at 250 g/ha [1]: 40%
- pest or weed control at 250 g/ha [2]: 0%
- pest or weed control at 250 g/ha [3]: 0%
- pest or weed control at 250 g/ha [4]: 0%
- pest or weed control at 125 g/ha ([5]; Postemergence, visual injury after approximately 10 d, 0 to 100 scale where 0 is no effect and 100 is complete control, read-out: Plant response rating, Galium): 20%
- pest or weed control at 125 g/ha ([6]; Postemergence, visual injury after approximately 10 d, 0 to 100 scale where 0 is no effect and 100 is complete control, read-out: Plant response rating, Kochia): 0%
- pest or weed control at 125 g/ha ([7]; Postemergence, visual injury after approximately 10 d, 0 to 100 scale where 0 is no effect and 100 is complete control, read-out: Plant response rating, Foxtail, Giant): 90%
- pest or weed control at 125 g/ha ([8]; Postemergence, visual injury after approximately 10 d, 0 to 100 scale where 0 is no effect and 100 is complete control, read-out: Plant response rating, Ryegrass, Italian): 0%
- pest or weed control at 125 g/ha ([9]; Postemergence, visual injury after approximately 10 d, 0 to 100 scale where 0 is no effect and 100 is complete control, read-out: Plant response rating, Blackgrass): 0%
- pest or weed control at 125 g/ha ([10]; Postemergence, visual injury after approximately 10 d, 0 to 100 scale where 0 is no effect and 100 is complete control, read-out: Plant response rating, Barnyardgrass): 80%
- pest or weed control at 125 g/ha ([11]; Postemergence, visual injury after approximately 10 d, 0 to 100 scale where 0 is no effect and 100 is complete control, read-out: Plant response rating, Ragweed): 0%
- pest or weed control at 125 g/ha ([12]; Postemergence, visual injury after approximately 10 d, 0 to 100 scale where 0 is no effect and 100 is complete control, read-out: Plant response rating, Pigweed): 0%
- plant injury at 125 g/ha ([13]; Postemergence, visual injury after approximately 10 d, 0 to 100 scale where 0 is no effect and 100 is complete control, read-out: Plant response rating, Wheat): 20%
- Corn plant response rating (crop injury, 0 = no effect, 100 = complete kill) at 125 g/ha ([14]; Postemergence, visual injury after approximately 10 d, 0 to 100 scale where 0 is no effect and 100 is complete control): 0%
- pest or weed control at 125 g/ha [15, 25]: 90%
- pest or weed control at 500 g/ha ([15]; preemergence, visual injury rating about 10 d after treatment, 0 to 100 scale (0 no effect, 100 complete control), read-out: Barnyardgrass plant response rating): 90%

Reference: patent publication US12077503B2, “Substituted cyclic amides and their use as herbicides” (FMC CORPORATION, priority 2015, dated 2024)
